Laboratory results: US11795481B2, “Processes for producing a fermentation product” (Novozymes A/S, priority 2017, dated 2023)

B1: Pfu S: commercial product Pyrococcus furiosus protease (Pfu S), SEQ ID NO: 111 (protein, listed as Pyrococcus furiosus)
chain: AELEGLDESAAQVMATYVWNLGYDGSGITIGIIDTGIDASHPDLQGKVIGWVDFVNGRSYPYDDHGHGTHVASIAAGTGAASNGKYKGMAPGAKLAGIKVLGADGSGSISTIIKGVEWAVDNKDKYGIKVINLSLGSSQSSDGTDALSQAVNAAWDAGLVVVVAAGNSGPNKYTIGSPAAASKVITVGAVDKYDVITSFSSRGPTADGRLKPEVVAPGNWIIAARASGTSMGQPINDYYTAAPGTSMATPHVAGIAALLLQAHPSWTPDKVKTALIETADIVKPDEIADIAYGAGRVNAYKAINYDNYAKLVFTGYVANKGSQTHQFVISGASFVTATLYWDNANSDLDLYLYDPNGNQVDYSYTAYYGFEKVGYYNPTDGTWTIKVVSYSGSANYQVDVVSDGSLSQPGSS

Legend:
multi-strain LAB culture = assay: SSF of control mash with 1% w/w infected mash, AA13 candidates, HPLC of organic acids and ethanol (Example 3); assay type: cell-based; details: SSF 32° C. up to 24 hours, 20% DS; for % delta Ethanol / % delta Lactic Acid: vs No Treatment
Experimental: A control mash was prepared in-house with an industry relevant blend of AA369 and Protease Pfu using a Lab-O-Mat incubator for 2 hours at 85° C. and 36% DS to simulate typical industry conditions. The mash was then frozen prior to use in SSF. An infected mash was prepared by infecting the control mash with a multi-strain LAB culture grown in MRS. The bacteria in control mash was incubated overnight, and then frozen with 20% glycerol. For this experiment, 1% weight/weight of the infected mash was mixed into the control mash. This mimics an infection event at a large-scale ethanol facility. For SSF, all mash was prepared with 1000 ppm of urea to aid with yeast fermentation. All treatments were dosed with a baseline commercial glucoamylase GSA, while AA13 candidates were dosed at either 10 ug/g-DS or 50 ug/g-DS. SSF was performed at 5 g scale with 10 uL/g rehydrated Ethanol Red yeast at 32° C. for up to 24 hours at 20% DS. At the end of fermentation, samples were deactivated with 50 uL of 40% sulfuric acid and then centrifuged. The supernatant was filtered through a 0.2 μm filter and then measured for soluble carbohydrates and organic acids using an ion-exchange H-column on HPLC.

[1] = pH 4.5; cited from earlier work

Row | Molecule | average Ethanol (multi-strain LAB culture; AA13 dose 10 ug/g-DS) | average Lactic Acid (multi-strain LAB culture; AA13 dose 10 ug/g-DS) | % delta Ethanol (multi-strain LAB culture; AA13 dose 10 ug/g-DS) | % delta Lactic Acid (multi-strain LAB culture; AA13 dose 10 ug/g-DS) | average Ethanol (multi-strain LAB culture; AA13 dose 50 ug/g-DS) | average Lactic Acid (multi-strain LAB culture; AA13 dose 50 ug/g-DS) | % delta Ethanol (multi-strain LAB culture; AA13 dose 50 ug/g-DS) | % delta Lactic Acid (multi-strain LAB culture; AA13 dose 50 ug/g-DS) | average Ethanol (multi-strain LAB culture; Penicillin dose 25 ppm) | average Lactic Acid (multi-strain LAB culture; Penicillin dose 25 ppm) | % delta Ethanol (multi-strain LAB culture; Penicillin dose 25 ppm) | % delta Lactic Acid (multi-strain LAB culture; Penicillin dose 25 ppm) | thermostability (Relative Activity 80° C./70° C.) [1] | thermostability (Relative Activity 90° C./70° C.) [1]
1 | Acrostalagmus luteoalbus: Acrostalagmus luteoalbus AA13 polypeptide of SEQ ID NO: 129 | 78.9 g/L | 3.0 g/L | 1.7% | −10.9% | 80.0 g/L | 2.9 g/L | 3.0% | −13.2% | – | – | – | – | – | –
2 | Aspergillus insuetus: Aspergillus insuetus AA13 polypeptide of SEQ ID NO: 130 | 76.7 g/L | 3.4 g/L | −1.2% | 1.7% | 77.2 g/L | 3.4 g/L | −0.6% | 2.1% | – | – | – | – | – | –
3 | Cladosporium gossypiicola: Cladosporium gossypiicola AA13 polypeptide of SEQ ID NO: 131 | 77.5 g/L | 3.3 g/L | −0.2% | −1.8% | 78.5 g/L | 3.2 g/L | 1.1% | −4.6% | – | – | – | – | – | –
4 | Penicillin [reference compound] | – | – | – | – | – | – | – | – | 80.1 g/L | 1.2 g/L | 3.1% | −62.4% | – | –
5 | Penicillium antarcticum: Penicillium antarcticum AA13 polypeptide of SEQ ID NO: 135 | 76.4 g/L | 3.4 g/L | −1.6% | 2.2% | 76.2 g/L | 3.4 g/L | −1.8% | 3.0% | – | – | – | – | – | –
6 | Penicillium concentricum: Penicillium concentricum AA13 polypeptide of SEQ ID NO: 136 | 78.1 g/L | 3.3 g/L | 0.6% | −0.6% | 78.2 g/L | 3.2 g/L | 0.7% | −3.2% | – | – | – | – | – | –
7 | Penicillium hoeksii: Penicillium hoeksii AA13 polypeptide of SEQ ID NO: 137 | 78.1 g/L | 3.2 g/L | 0.6% | −2.8% | 79.1 g/L | 3.2 g/L | 1.9% | −4.8% | – | – | – | – | – | –
8 | Penicillium paxilli: Penicillium paxiffi AA13 polypeptide of SEQ ID NO: 138 | 77.8 g/L | 3.2 g/L | 0.2% | −4.9% | 78.1 g/L | 3.1 g/L | 0.5% | −5.7% | – | – | – | – | – | –
9 | Penicillium roseopurpureum: Penicillium roseopurpureum AA13 polypeptide of SEQ ID NO: 139 | 78.0 g/L | 3.3 g/L | 0.5% | −1.3% | 78.1 g/L | 3.3 g/L | 0.6% | −1.8% | – | – | – | – | – | –
10 | Penicillium samsonianum: Penicillium samsonianum AA13 polypeptide of SEQ ID NO: 140 | 77.1 g/L | 3.4 g/L | −0.6% | 2.2% | 77.4 g/L | 3.4 g/L | −0.4% | 2.0% | – | – | – | – | – | –
11 | Penicillium sclerotiorum: Penicillium sclerotiorum AA13 polypeptide of SEQ ID NO: 141 | 76.4 g/L | 3.5 g/L | −1.6% | 6.9% | 78.1 g/L | 3.3 g/L | 0.6% | −0.9% | – | – | – | – | – | –
12 | Penicillium steckii: Penicillium steckii AA13 polypeptide of SEQ ID NO: 145 | 76.6 g/L | 3.5 g/L | −1.4% | 4.5% | 77.3 g/L | 3.3 g/L | −0.4% | −1.0% | – | – | – | – | – | –
13 | Penicillium viticola: Penicillium viticola AA13 polypeptide of SEQ ID NO: 146 | 76.6 g/L | 3.4 g/L | −1.3% | 2.2% | 77.8 g/L | 3.4 g/L | 0.2% | 2.8% | – | – | – | – | – | –
14 | Penicillium vulpinum: Penicillium vulpinum AA13 polypeptide of SEQ ID NO: 147 | 79.0 g/L | 3.2 g/L | 1.7% | −2.9% | 78.3 g/L | 3.5 g/L | 0.9% | 4.6% | – | – | – | – | – | –
15 | B1 | – | – | – | – | – | – | – | – | – | – | – | – | 110% | 103%
